Where only a bound is given, the exact number is not on record here.

The test system of one data set is Mouse STC-1 cells. The data set can be described thus: STC-1 GLP-1 assay. In kind it is cell-based. The note with it: GLP-1 secretion, 2 h, coded A-C, read-out: Mouse STC-1 HTRF GLP-1 Activity (EC50). The procedure, abridged: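 Cells were seeded two days before in charcoal-stripped FBS medium, then exposed 2 h at 37 °C to compounds (12-point half-log series) in HBSS with protease inhibitors, DPP-IV inhibitor and 0.1% fatty acid free BSA. Active GLP-1 in supernatants measured by HTRF; EC50 derived.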
In general terms: In TR-FRET formats the signal depends on donor and acceptor labels being close together.

A short description of data set [1]: Pharmacokinetic profile in mice. In kind it is in vivo. The note with it: mouse; fasted male Hilltop mice, 10 mg/kg oral gavage, plasma, mean of three mice. The procedure, abridged: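 Fasted 8-week-old male Hilltop mice received 10 mg/kg by oral gavage in 20% PEG400/80% 0.5% CMC + 0.25% Tween-80. Plasma was sampled at 0–4 h, with at most 3 draws per mouse, and measured by LC-MS/MS (0.1–500 ng/mL standards). Cmax and AUC were derived non-compartmentally; values are means of three mice.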

Consider `CCc1cnccc1-c1cccc([C@H](C)N(CCCC(=O)NCCS(=O)(=O)NCC(=O)O)S(=O)(=O)c2cccc(Cl)c2C)c1` [Compound 21AT, (S) 2-(3-(4-(3-chloro-2-methyl-N-(1-(3-(3-ethylpyridin-4-yl)phenyl)ethyl)phenylsulfonamido)butanamido)ethylsulfonamido)acetic acid], for which, in the data set with Mouse STC-1 cells, the EC50 (in general, the midpoint of the concentration-response curve) was 100 to 999 nM. The highest level in data set [1] (Cmax) was 1.6 ng/mL.

Turning to `Cc1cnccc1-c1cccc([C@H](C)N(CCCCNC(=O)[C@@H](N)CS(=O)(=O)O)S(=O)(=O)c2ccccc2C(F)(F)F)c1` [Compound 31AC, (R)-2-amino-3-((4-(N-((S)-1-(3-(3-methylpyridin-4-yl)phenyl)ethyl)-2-(trifluoromethyl)phenylsulfonamido)butyl)amino)-3-oxopropane-1-sulfonic acid], in the data set with Mouse STC-1 cells, the EC50 was 100 to 999 nM. Further, the concentration in data set [1] peaked (Cmax) at 1.8 ng/mL.

Consider `Cc1cnccc1-c1cccc(C(C)(C)N(CCCC(=O)NCS(=O)(=O)O)S(=O)(=O)c2ccccc2C(F)(F)F)c1` [Compound 20AB], for which the EC50 in the data set with Mouse STC-1 cells lay within 100 to 999 nM. In addition, the Cmax (commonly the peak of the concentration-time curve) in data set [1] was found to be 1.5 ng/mL.

With `Cc1cnccc1-c1cccc([C@H](C)N(CCCC(=O)NCCS(=O)(=O)NCCC(=O)O)S(=O)(=O)c2cccc(Cl)c2C)c1` [Compound 21AL], in the data set with Mouse STC-1 cells, the EC50 is 100 to 999 nM. Besides, the concentration in data set [1] peaked (Cmax) at 7.6 ng/mL.

`CCc1cnccc1-c1cccc(C(C)(C)N(CCCC(=O)NCCS(=O)(=O)O)S(=O)(=O)c2ccccc2C(F)(F)F)c1` [Compound 20, 2-(4-(N-(2-(3-(3-ethylpyridin-4-yl)phenyl)propan-2-yl)-2-(trifluoromethyl)-phenylsulfonamido)butanamido)ethanesulfonic acid]: the EC50 in the data set with Mouse STC-1 cells was below 100 nM. Further, the highest level in data set [1] (Cmax) was 5 ng/mL.

For `CCc1cnccc1-c1cccc(C(C)(C)NS(=O)(=O)c2ccccc2C(F)(F)F)c1` [Compound 5, N-(2-(3-(3-ethylpyridin-4-yl)phenyl)propan-2-yl)-2-(trifluoromethyl)benzenesulfonamide], the EC50 with Mouse STC-1 cells lay within 100 to 999 nM. Further, the Cmax in data set [1] turned out to be 3.1 ng/mL.

For the molecule `Cc1cnccc1-c1cccc([C@H](C)N(CCCC(=O)NCCNS(=O)(=O)CCC(=O)O)S(=O)(=O)c2cccc(Cl)c2C)c1` [Compound 26AB], in the data set on Mouse STC-1 cells, the EC50 was in the range of 100 to 999 nM. In addition, the Cmax in data set [1] was 2.6 ng/mL.

As for `Cc1cnccc1-c1cccc([C@H](C)N(CCCC(=O)NCCNS(=O)(=O)CC(=O)O)S(=O)(=O)c2cccc(Cl)c2C)c1` [Compound 26AA], the EC50 in the data set on Mouse STC-1 cells fell in the range of 100 to 999 nM. For the same molecule, the Cmax in data set [1] stood at 1.4 ng/mL.

On to `Cc1cnccc1-c1cccc(C(C)(C)N(CCCNC(=O)NCS(=O)(=O)O)S(=O)(=O)c2cccc(Cl)c2C)c1` [Compound 29, (3-(3-((3-Chloro-2-methyl-N-(2-(3-(3-methylpyridin-4-yl)phenyl)propan-2-yl)phenyl)sulfonamide)propyl)ureido) methanesulfonic acid], for which the EC50 in the data set on Mouse STC-1 cells lay within 100 to 999 nM. This molecule yielded a Cmax in data set [1] of 2.5 ng/mL.

As to `Cc1cnccc1-c1cccc([C@H](C)N(CCCC(=O)NCCS(=O)(=O)NCCCC(=O)O)S(=O)(=O)c2ccccc2C(F)(F)F)c1` [Compound 20BK], in the data set with Mouse STC-1 cells, the EC50 was 1000 to 30000 nM. Besides, the Cmax in data set [1] is 0.4 ng/mL.

With `Cc1cnccc1-c1cccc(C(C)(C)N(CCCC(=O)O)S(=O)(=O)c2ccccc2C(F)(F)F)c1` [Compound 14, 4-(N-(2-(3-(3-methylpyridin-4-yl)phenyl)propan-2-yl)-2-(trifluoromethyl)phenylsulfonamido)butanoic acid], the EC50 in the data set with Mouse STC-1 cells fell in the range of 100 to 999 nM. This molecule also showed a Cmax in data set [1] of 1080 ng/mL.

With `CCc1cnccc1-c1cccc(C2CN(C(=O)CS(=O)(=O)O)CCN2S(=O)(=O)c2cccc(Cl)c2C)c1` (stereo not drawn) [Compound 49, 2-(4-((3-Chloro-2-methylphenyl)sulfonyl)-3-(3-(3-ethylpyridin-4-yl)phenyl)piperazin-1-yl)-2-oxoethanesulfonic acid], in the data set on Mouse STC-1 cells, the EC50 was 100 to 999 nM. Moreover, the concentration in data set [1] peaked (Cmax) at 2.1 ng/mL.

As to `Cc1cnccc1-c1cccc(C(C)(C)NS(=O)(=O)c2cccc(C(F)(F)F)c2)c1` [Compound 5AA, N-(2-(3-(3-methylpyridin-4-yl)phenyl)propan-2-yl)-3-(trifluoromethyl)benzenesulfonamide], the EC50 in the data set with Mouse STC-1 cells lay within 100 to 999 nM. This molecule returned a Cmax in data set [1] of 128 ng/mL.

`CCc1cnccc1-c1cccc([C@H](C)N(CCCC(=O)NCCS(=O)(=O)NCC(=O)O)S(=O)(=O)c2ccccc2C)c1` [Compound 20BU, (S)-2-(4-(2-methyl-N-(1-(3-(3-ethylpyridin-4-yl)phenyl)ethyl)phenylsulfonamido)butanamidoethylsulfonamido)acetate]: the EC50 in the data set on Mouse STC-1 cells was 100 to 999 nM. Besides, the concentration in data set [1] peaked (Cmax) at 1.1 ng/mL.

As to `Cc1cnccc1-c1cccc([C@H](C)N(CCCCC(=O)NCCS(=O)(=O)O)S(=O)(=O)c2cccc(Cl)c2C)c1` [Compound 20AH, (S)-2-(5-(3-chloro-2-methyl-N-(1-(3-(3-methylpyridin-4-yl)phenyl)ethyl)phenylsulfonamido)pentanamido)ethanesulfonic acid], the EC50 with Mouse STC-1 cells was 1000 to 30000 nM. In data set [1], this molecule yielded a Cmax of 0.9 ng/mL.

Take `Cc1cnccc1-c1cccc([C@H](C)N(CCCCNC(=O)NCCS(=O)(=O)NCC(=O)O)S(=O)(=O)c2ccccc2C(F)(F)F)c1` [Compound 28AA, (S)-2-(3-(4-(N-(1-(3-(3-methylpyridin-4-yl)phenyl)ethyl)-2-(trifluoromethyl)phenylsulfonamido)butyl)ureido)ethanesulfonamido acetic acid]: the EC50 with Mouse STC-1 cells lay within 100 to 999 nM. The Cmax in data set [1] came out at 0.7 ng/mL.

Consider `Cc1cnccc1-c1cccc(C(C)(C)N(CCCC(=O)NC[C@@H](O)[C@H](O)[C@@H](O)[C@@H](O)CO)S(=O)(=O)c2cccc(Cl)c2C)c1` [Compound 20AF, 4-(3-chloro-2-methyl-N-(2-(3-(3-methylpyridin-4-yl)phenyl)propan-2-yl)phenylsulfonamido)-N-((2R,3S,4S,5S)-2,3,4,5,6-pentahydroxyhexyl)butanamide], for which the EC50 with Mouse STC-1 cells is 100 to 999 nM. In data set [1], the Cmax is 5.2 ng/mL.

`Cc1cnccc1-c1cccc([C@H](C)N(CCCCNC(=O)NCS(=O)(=O)O)S(=O)(=O)c2ccccc2C(F)(F)F)c1` [Compound 28AC, (S)-(3-(4-(N-(1-(3-(3-methylpyridin-4-yl)phenyl)ethyl)-2-(trifluoromethyl)phenylsulfonamido)butyl)ureido)methanesulfonic acid]: the EC50 in the data set on Mouse STC-1 cells lay within 1000 to 30000 nM. For the same molecule, the Cmax in data set [1] is 0.8 ng/mL.

Take `CCc1cnccc1-c1cccc([C@H](C)N(CCCC(=O)NCCNS(N)(=O)=O)S(=O)(=O)c2cccc(Cl)c2C)c1` [Compound 37AA, (S)-4-(3-chloro-N-(1-(3-(3-ethylpyridin-4-yl)phenyl)ethyl)-2-methylphenylsulfonamido)-N-(2-(sulfamoylamino)ethyl)butanamide]: in the data set on Mouse STC-1 cells, the EC50 fell in the range of 100 to 999 nM. In data set [1], this molecule came in with a Cmax of 39.4 ng/mL.

For `Cc1cnccc1-c1cccc([C@H](C)N(CCCCC(=O)NCCS(=O)(=O)NCC(=O)O)S(=O)(=O)c2ccccc2C(F)(F)F)c1` [Compound 20BL, (S) 2-(4-(N-(1-(3-(3-methylpyridin-4-yl)phenyl)ethyl)-2-(trifluoromethyl)phenylsulfonamidopentanamido)ethylsulfonamido)acetic acid], the EC50 in the data set on Mouse STC-1 cells lay in the range of 1000 to 30000 nM. Besides, the Cmax in data set [1] came to 1.2 ng/mL.

Turning to `CCc1cnccc1-c1cccc([C@H](C)N(CCCC(=O)NCCCS(=O)(=O)O)S(=O)(=O)c2cccc(Cl)c2C)c1` [Compound 20AM, (S)-3-(4-(3-chloro-N-(1-(3-(3-ethylpyridin-4-yl)phenyl)ethyl)-2-methylphenylsulfonamido)butanamido)propane-1-sulfonic acid], in the data set with Mouse STC-1 cells, the EC50 lay within 100 to 999 nM. In data set [1], this molecule came in with a Cmax of 0.9 ng/mL.

Consider `Cc1cnccc1-c1cccc([C@H](C)N(CCCC(=O)NCCNS(=O)(=O)NCC(=O)O)S(=O)(=O)c2cccc(Cl)c2C)c1` [Compound 38], for which the EC50 with Mouse STC-1 cells lay within 100 to 999 nM. In data set [1], this molecule yielded a Cmax of 3.6 ng/mL.

In the case of `Cc1cnccc1-c1cccc([C@H](C)N(CCCCNC(=O)CS(=O)(=O)O)S(=O)(=O)c2ccccc2C(F)(F)F)c1` [Compound 31AA, (S)-2-((4-(N-(1-(3-(3-methylpyridin-4-yl)phenyl)ethyl)-2-(trifluoromethyl)phenylsulfonamido)butyl)amino)-2-oxoethanesulfonic acid], the EC50 in the data set with Mouse STC-1 cells was 100 to 999 nM. In data set [1], this molecule displayed a Cmax of 4.4 ng/mL.

For the molecule `CCc1cnccc1-c1cccc([C@H](C)N(CCCC(=O)NCCS(=O)(=O)O)S(=O)(=O)c2ccccc2C)c1` [Compound 20AR, (S)-2-(4-(N-(1-(3-(3-ethylpyridin-4-yl)phenyl)ethyl)-2-methylphenyl-sulfonamido)butanamido)ethane sulfonic acid], in the data set on Mouse STC-1 cells, the EC50 was in the range of 100 to 999 nM. Moreover, the Cmax in data set [1] was 3.2 ng/mL.

On to `Cc1cnccc1-c1cccc(C(C)(C)N(CCCC(=O)NCCS(=O)(=O)O)S(=O)(=O)c2ccccc2C(F)(F)F)c1` [Compound 20AA, 2-(4-(N-(2-(3-(3-methylpyridin-4-yl)phenyl)propan-2-yl)-2-(trifluoromethyl)phenylsulfonamido)butanamido)ethanesulfonic acid], for which the EC50 in the data set with Mouse STC-1 cells lay within 100 to 999 nM. The same molecule displayed a Cmax in data set [1] of 7.2 ng/mL.

On to `Cc1cnccc1-c1cccc([C@H](C)N(CCCC(=O)NCCS(=O)(=O)NCC(=O)O)S(=O)(=O)c2cccc(Cl)c2C)c1` [Compound 21AN, (S) 2-(3-(4-(3-chloro-2-methyl-N-(1-(3-(3-methylpyridin-4-yl)phenyl)ethyl)phenylsulfonamido)butanamido)ethylsulfonamido)acetic acid], for which, in the data set with Mouse STC-1 cells, the EC50 was in the range of 100 to 999 nM. The Cmax in data set [1] turned out to be 1.9 ng/mL.

In the case of `CCc1cnccc1-c1cccc([C@H](C)N(CCCC(=O)NCCS(=O)(=O)O)S(=O)(=O)c2cccc(Cl)c2C)c1` [Compound 21AQ, (S)-2-(4-(3-chloro-N-(1-(3-(3-ethylpyridin-4-yl)phenyl)ethyl)-2-methylphenylsulfonamido)butanamido)ethanesulfonic acid], the EC50 in the data set on Mouse STC-1 cells lay in the range of 100 to 999 nM. The molecule further yielded a Cmax in data set [1] of 4.2 ng/mL.

These data come from US11236055B2 (Venenum Biodesign, LLC, priority 2016, dated 2022).
